# According to PMC12914960, “Repurposing a detrimental antibody epitope as targeted therapeutics for sepsis and rheumatoid arthritis” (Military Medical Research, 2026):
# Values joined by “and” are separate entries in the source; they are usually repeats but may differ in a detail not shown here. Equal entries are not always repeated. Where a SMILES comes first, the peptide text is derived from it.
# How the values were obtained:
# CAIA in BALB/c mice = experiment: Arthritis severity score, collagen antibody-induced arthritis (CAIA); assay type: in vivo, mouse
# Procedure: The CAIA model was established in BALB/c mice (8–10 weeks old) as described previously. On Day 0, the mice received an i.p. injection of 2 mg of anti-collagen II mAb cocktail (α-CII, Chondrex, Inc., Redmond, WA, USA). On Day 3, the mice received an i.p. injection of 30 µg of LPS [Escherichia coli (E. coli) O111:B4; Sigma-Aldrich, St. Louis, MO, USA] to activate inflammation and synchronize arthritis onset. The mice were randomized to the control vehicle (n = 5 or n = 7–10) or experimental groups (n = 5 or n = 7–10). Therapeutic agents [P2-1 peptide (1.0 or 2.0 mg/kg) or pCTS-L-neutralizing mAb2 (1.0, 2.0, or 4.0 mg/kg)] were administered i.p. daily, either prophylactically from–Day 2 or therapeutically from Day 6 post-α-CII challenge. Arthritis severity was scored daily via a clinical scoring system [0–4 per paw: 0 = normal; 1 = mild redness and swelling in a single joint type (ankle, wrist, or individual digit); 2 = moderate redness and swelling affecting two joint types; 3 = severe redness and swelling across all 3 joint types; 4 = maximal redness and swelling of the entire paw that obscured the joint definition].
# On Day 0, the mice recei ved an i.p. injection of 2 mg of anti-collagen II m Ab cocktail (α-CII, Chondrex, Inc., Redmond, WA). […]
# [1] = test system: pCTS-L secretion from human PBMCs; experiment: HMGB1-induced pCTS-L secretion by PBMCs, Western blotting; assay type: cell-based; conditions: 16 h; for pCTS-L release: densitometry
# Procedure: Human blood was purchased from the New York Blood Center (Long Island City, NY, USA), and PBMCs were isolated via density gradient centrifugation through Ficoll (Ficoll-Paque PLUS) as previously described. PBMCs were cultured in RPMI-1640 supplemented with 10% human serum, 2 mmol/L L-glutamine, 100 U/ml penicillin, and 100 µg/ml streptomycin (all from Invitrogen, Carlsbad, CA, USA). For experiments, PBMCs were stimulated with recombinant HMGB1 (0.5 or 2.0 µg/ml) for 16 h, either alone or in combination with P2-1 at 5.0 or 10.0 µg/ml. Cell-free supernatants were collected for analysis of cytokine/chemokine levels via cytokine antibody arrays, or pCTS-L levels via Western blotting analysis as previously described.
# Cell-conditioned medium from human PBMC cultures was collected and concentrated via Amicon Ultra Centrifugal Filters with a 10 kD molecular weight cutoff (Cat. #UFC801096, MilliporeSigma, Burlington, MA, USA). Equal volumes of conditioned medium, representing equivalent numbers of cells, were resolved on sodium dodecyl sulfate-polyacrylamide gels and transferred to polyvinylidene difluoride membranes. After being blocked with 5% nonfat milk in Tris-buffered saline with 0.1% Tween 20, the membranes were probed with a homemade primary monoclonal antibody against pCTS-L (e.g., mAb2, 1:1000) overnight as previously described. After washing, the membranes were incubated with a horseradish peroxidase-conjugated secondary antibody. The protein bands were visualized using enhanced chemiluminescence substrate (Pierce) and detected via a chemiluminescence imaging system (e.g., Bio-Rad ChemiDoc MP). The relative levels of specific proteins were determined using the UN-SCAN-IT gel analysis software version 7.1 (Silk Scientific Inc., Orem, UT, USA) and expressed in arbitrary units (AU). The experiments were performed in quadruplicate (n = 4 biological replicates).
# Fig. S9 Full Western blotting analysis of the effect of P2- 1 on HMGB1- induced pCTS-L release in human PBMCs. Human PBMCs were stimulated with HMGB1 (0.5 µ g/ml) in th e abs ence or p resen ce of P2-1 (5.0 or 10.0 µg/ml) for 16 h, and the levels of pCTS-L in the cell-conditioned medium were determined by Western blotting, with sample loading normalized by volume of culture medium conditioned by an equivalent number of cells. Representative Western blotting images showing the dose-dependent […]
# human PBMCs. HMGB1 high mobility group box 1, pCTS -L procathepisn L , PBMCs PBMCs peripheral […]
# (1 picture or pasted object on this page, not shown here)
smiles,measurement,setting,value
CCCC[C@H](NC(=O)[C@H](Cc1c[nH]cn1)NC(=O)[C@@H](NC(=O)[C@H](CCCCN)NC(=O)[C@@H](N)[C@@H](C)O)C(C)C)C(=O)N[C@@H](CCCCN)C(=O)N[C@@H](CO)C(=O)N[C@@H](Cc1ccccc1)C(=O)N[C@@H](CC(C)C)C(=O)N[C@@H](C)C(=O)N[C@@H](Cc1ccccc1)C(=O)N[C@@H](CCC(N)=O)C(=O)N[C@H](C(=O)N[C@@H](CCCCN)C(=O)N[C@H](C(=O)O)[C@@H](C)O)[C@@H](C)O [P2-1] (HELM PEPTIDE1{T.K.V.H.[Nle].K.S.F.L.A.F.Q.T.K.T}$$$$V2.0; N-terminus and C-terminus assumed),"arthritis severity, in words",CAIA in BALB/c mice; P2-1 1.0 or 2.0 mg/kg i.p. daily from Day 6 (therapeutic),dose-dependently and significantly attenuated CAIA-induced arthritis severity
same,"arthritis severity, in words","CAIA in BALB/c mice; P2-1 prophylactic, from Day -2, significant by Day 7",significantly reduced arthritis severity
same,pCTS-L release,"[1]; HMGB1 (0.5) + P2-1 5.0 μg/ml, individual replicates",1.2 and 4 and 3.2 and 2.1
same,pCTS-L release,"[1]; HMGB1 (0.5) + P2-1 10.0 μg/ml, individual replicates",0.4 and 0.7 and 1.9 and 1.1
same,pCTS-L release,"[1]; HMGB1 (2.0) + P2-1 5.0 μg/ml, single value",4.8
same,pCTS-L release,"[1]; HMGB1 (2.0) + P2-1 10.0 μg/ml, single value",1.6
same,"HMGB1-induced pCTS-L secretion, in words",[1]; P2-1 5.0 or 10.0 µg/ml,striking and dose-dependent suppression of HMGB1-induced pCTS-L secretion
